From ChEMBL document CHEMBL5550177, “Design and synthesis of matrine derivatives for anti myocardial ischemia-reperfusion injury by promoting angiogenesis” (Bioorg Med Chem, 2024)
Activity calls are given as the source filed them. The calls are words filed in the database; no cut-off is given here.

What was measured:
Rattus norvegicus [1] = assay: Cardioprotective activity in myocardial ischemia/reperfusion induced rat injury model assessed as improvement in cardiac injury at 5 to 20 mg/kg, iv pretreated with compound followed by MI/R induction measured after 30 mins by H and E staining based light microscopic analysis; format: functional, organism-based; conditions: dose 5-20 mg/kg
Rattus norvegicus [2] = assay: Cardioprotective activity in myocardial ischemia/reperfusion induced rat injury model assessed as reduction in myocardial fiber disruption at 5 to 20 mg/kg, iv pretreated with compound followed by MI/R induction measured after 30 mins by H and E staining based light microscopic analysis; format: functional, organism-based; conditions: dose 5-20 mg/kg
H9c2 [3] = assay: Cytotoxicity against rat H9c2 cells assessed as cell viability upto 20 uM incubated for 24 hrs by CCK-8 assay; format: toxicity, cell-based; conditions: h9c2, 24 h
[4] = Toxicity in rat assessed as change in organ color at 20 to 100 mg/kg, iv measured after 14 days; format: organism-based; conditions: in vivo, 336 h, dose 20-100 mg/kg, time 14 day
Rattus norvegicus [5] = assay: Antioxidant activity in myocardial ischemia/reperfusion induced rat injury model assessed as increase in SOD level at 5 to 20 mg/kg, iv pretreated with compound followed by MI/R induction measured after 30 mins; format: functional, organism-based; conditions: dose 5-20 mg/kg
[6] = Toxicity in rat assessed as change in organ index at 20 to 100 mg/kg, iv measured after 14 days; format: organism-based; conditions: in vivo, 336 h, dose 20-100 mg/kg, time 14 day
H9c2 [7] = assay: Protection against H/R induced necrosis in rat H9c2 cells assessed as reduction in myocardial cell death at 5 to 20 uM preincubated with compound followed by hypoxic reoxygenation induction by Hoechst 33258/PI double staining based fluorescence microscopic analysis; format: functional; conditions: dose 5-20 µM
[8] = Toxicity in rat assessed as change in organ morphology at 20 to 100 mg/kg, iv measured after 14 days; format: organism-based; conditions: in vivo, 336 h, dose 20-100 mg/kg, time 14 day
Rattus norvegicus [9] = assay: Antioxidant activity in myocardial ischemia/reperfusion induced rat injury model assessed as decrease in MDA level at 5 to 20 mg/kg, iv pretreated with compound followed by MI/R induction measured after 30 mins; format: functional, organism-based; conditions: dose 5-20 mg/kg
H9c2 [10] = assay: Cardioprotective activity against MI/R induced rat H9c2 cells assessed as reduction in BNP protein expression at 5 to 20 uM pretreated with compound followed by MI/R induction by Western blotting assay; format: functional, cell-based; conditions: dose 5-20 µM
H9c2 [11] = assay: Protection against H/R induced damage in rat H9c2 cells assessed as increase in cell viability at 1 to 20 umol/L preincubated for 2 hrs followed by hypoxic reoxygenation induction by CCK-8 assay (reference value: 45.1 +/- 2.1%); format: functional; conditions: dose 1-20 µmol/L; at 1 to 20 µM
Rattus norvegicus [12] = assay: Cardioprotective activity in iv dosed myocardial ischemia/reperfusion induced rat injury model assessed as reduction in serum CK-MB level pretreated with compound followed by MI/R induction measured after 30 mins; format: functional, organism-based; conditions: dose 5-20 mg/kg
H9c2 [13] = assay: Cardioprotective activity against H/R induced damage in rat H9c2 cells assessed as upregulation of VEGFA gene expression at 5 to 20 uM by RT-qPCR assay; format: functional, cell-based; conditions: dose 5-20 µM
H9c2 [14] = assay: Protection against H/R induced damage in rat H9c2 cells assessed as reduction in LDH level at 20 uM preincubated with compound followed by hypoxic reoxygenation induction; format: functional, cell-based
H9c2 [15] = assay: Antioxidant activity against H/R induced damage in rat H9c2 cells assessed as reduction in MDA level at 5 to 20 uM preincubated with compound followed by hypoxic reoxygenation induction; format: functional, cell-based; conditions: dose 5-20 µM
H9c2 [16] = assay: Cardioprotective activity against MI/R induced rat H9c2 cells assessed as upregulation of ADCY5 protein expression at 5 to 20 uM pretreated with compound followed by MI/R induction by Western blotting assay; format: functional, cell-based; conditions: dose 5-20 µM
H9c2 [17] = assay: Cardioprotective activity against MI/R induced rat H9c2 cells assessed as upregulation of CREB3L4 protein expression at 5 to 20 uM pretreated with compound followed by MI/R induction by Western blotting assay; format: functional, cell-based; conditions: dose 5-20 µM
H9c2 [18] = assay: Cardioprotective activity against H/R induced damage in rat H9c2 cells assessed as upregulation of ADCY5 gene expression at 5 to 20 uM by RT-qPCR assay; format: functional, cell-based; conditions: dose 5-20 µM
Rattus norvegicus [19] = assay: Cardioprotective activity in iv dosed myocardial ischemia/reperfusion induced rat injury model assessed as reduction in area of infraction pretreated with compound followed by MI/R induction measured after 30 mins by TTC staining based assay; format: functional, organism-based; conditions: dose 5-20 mg/kg
H9c2 [20] = assay: Protection against H/R induced damage in rat H9c2 cells assessed as reduction in CK-MB level at 20 uM preincubated with compound followed by hypoxic reoxygenation induction; format: functional, cell-based
[21] = Drug accumulation in rat heart at 5 to 20 mg/kg, iv measured after 2 hrs by HPLC analysis; format: ADME, organism-based; conditions: in vivo, dose 5-20 mg/kg
H9c2 [22] = assay: Cardioprotective activity against H/R induced damage in rat H9c2 cells assessed as reduction in PP2B gene expression by RT-qPCR assay; format: functional, cell-based; conditions: dose 5-20 µM
H9c2 [23] = assay: Cardioprotective activity against MI/R induced rat H9c2 cells assessed as reduction in PP2B protein expression at 5 to 20 uM pretreated with compound followed by MI/R induction by Western blotting assay; format: functional, cell-based; conditions: dose 5-20 µM
Rattus norvegicus [24] = assay: Cardioprotective activity in myocardial ischemia/reperfusion induced rat injury model assessed as prevention of heart rate decrease at 5 to 20 mg/kg, iv measured after 30 mins; format: functional, organism-based; conditions: dose 5-20 mg/kg
Rattus norvegicus [25] = assay: Cardioprotective activity in myocardial ischemia/reperfusion induced rat injury model assessed as improvement in damaged left ventricular diastolic pressure at 5 to 20 mg/kg, iv measured after 30 mins; format: functional, organism-based; conditions: dose 5-20 mg/kg
Rattus norvegicus [26] = assay: Cardioprotective activity in myocardial ischemia/reperfusion induced rat injury model assessed as prevention of average femoral artery blood pressure decrease at 5 to 20 mg/kg, iv measured after 30 mins; format: functional, organism-based; conditions: dose 5-20 mg/kg
H9c2 [27] = assay: Protection against H/R induced necrosis in rat H9c2 cells assessed as reduction in myocardial cell death preincubated with compound followed by hypoxic reoxygenation induction by Hoechst 33258/PI double staining based fluorescence microscopic analysis; format: functional; conditions: dose 5-20 µM
H9c2 [28] = assay: Cardioprotective activity against H/R induced damage in rat H9c2 cells assessed as reduction in BNP gene expression by RT-qPCR assay; format: functional, cell-based; conditions: dose 5-20 µM
H9c2 [29] = assay: Cardioprotective activity against MI/R induced rat H9c2 cells assessed as upregulation of VEGFA protein expression at 5 to 20 uM pretreated with compound followed by MI/R induction by Western blotting assay; format: functional, cell-based; conditions: dose 5-20 µM
H9c2 [30] = assay: Cardioprotective activity against H/R induced damage in rat H9c2 cells assessed as upregulation of CREB3L4 gene expression at 5 to 20 uM by RT-qPCR assay; format: functional, cell-based; conditions: dose 5-20 µM
Chorioallantoic membrane = assay: Angiogenesis activity in chicken embryo chorioallantoic membrane assessed as increase in total number of blood vessels incubated for 132 hrs by CAM assay; format: functional, tissue-based; conditions: Gallus gallus
Rattus norvegicus [31] = assay: Cardioprotective activity in iv dosed myocardial ischemia/reperfusion induced rat injury model assessed as reduction in serum LDH level pretreated with compound followed by MI/R induction measured after 30 mins; format: functional, organism-based; conditions: dose 5-20 mg/kg
Rattus norvegicus [32] = assay: Cardioprotective activity in myocardial ischemia/reperfusion induced rat injury model assessed as improvement in damaged left ventricular systolic pressure at 5 to 20 mg/kg, iv measured after 30 mins; format: functional, organism-based; conditions: dose 5-20 mg/kg
Rattus norvegicus [33] = assay: Cardioprotective activity in myocardial ischemia/reperfusion induced rat injury model assessed as improvement in damaged ventricular systolic function at 5 to 20 mg/kg, iv measured after 30 mins; format: functional, organism-based; conditions: dose 5-20 mg/kg
H9c2 [34] = assay: Antioxidant activity against H/R induced damage in rat H9c2 cells assessed as increase in SOD level preincubated with compound followed by hypoxic reoxygenation induction; format: functional, cell-based; conditions: dose 5-20 µM
H9c2 [35] = assay: Protection against H/R induced damage in rat H9c2 cells assessed as increase in cell viability at 1 to 20 umol/L preincubated for 2 hrs followed by hypoxic reoxygenation induction by CCK-8 assay; format: functional, cell-based; conditions: dose 1-20 µmol/L

SMILES: CC(C)NCC(O)COc1ccc(CC(N)=O)cc1 (configuration not stated)
- Activity (Rattus norvegicus [1]): Active
- Activity (Rattus norvegicus [2]): Active

SMILES: O=C(CCC[C@@H]1[C@H]2CCCN3CCC[C@@H](CN1Cc1ccccc1)[C@@H]23)NCCC1=CC=CCC1=S
- Activity (H9c2 [3]): Non-Toxic

SMILES: O=C(CCC[C@@H]1[C@H]2CCCN3CCC[C@@H](CN1Cc1ccccc1)[C@@H]23)NC1CCCC1
- Activity (H9c2 [3]): Non-Toxic

SMILES: O=C(CCC[C@@H]1[C@H]2CCCN3CCC[C@@H](CN1Cc1ccccc1)[C@@H]23)Nc1cccnn1
- Activity (H9c2 [3]): Non-Toxic

SMILES: O=C(CCC[C@@H]1[C@H]2CCCN3CCC[C@@H](CN1Cc1ccccc1)[C@@H]23)NCCOCCOC(=O)c1sccc1Cl
- Activity [4]: Non-Toxic
- Activity (Rattus norvegicus [5]): Active
- Activity [6]: Non-Toxic
- Activity (H9c2 [7]): Active
- Activity [8]: Non-Toxic
- Activity (Rattus norvegicus [9]): Active
- Activity (H9c2 [10]): Active
- Activity (H9c2 [11]): 93.2%
- Activity (Rattus norvegicus [12]): Dose-Dependent Effect
- Activity (H9c2 [13]): Active
- Activity (H9c2 [14]): Active
- Activity (H9c2 [15]): Active
- Activity (H9c2 [16]): Active
- Activity (H9c2 [17]): Active
- Activity (H9c2 [18]): Active
- Activity (Rattus norvegicus [19]): Dose-Dependent Effect
- Activity (H9c2 [20]): Active
- Activity (Rattus norvegicus [1]): Active
- Drug uptake [21]: Active
- Activity (Rattus norvegicus [2]): Active
- Activity (H9c2 [22]): Dose-Dependent Effect
- Activity (H9c2 [23]): Active
- Activity (Rattus norvegicus [24]): Active
- Activity (Rattus norvegicus [25]): Active
- Activity (Rattus norvegicus [26]): Active
- Activity (H9c2 [27]): Dose-Dependent Effect
- Activity (H9c2 [28]): Dose-Dependent Effect
- Activity (H9c2 [29]): Active
- Activity (H9c2 [30]): Active
- Activity (Chorioallantoic membrane): Active
- Activity (Rattus norvegicus [31]): Dose-Dependent Effect
- Activity (Rattus norvegicus [32]): Active
- Activity (Rattus norvegicus [33]): Active
- Activity (H9c2 [34]): Dose-Dependent Effect

SMILES: O=C(CCC[C@@H]1[C@H]2CCCN3CCC[C@@H](CN1Cc1ccccc1)[C@@H]23)NCCOCCO
- Activity (H9c2 [35]): Active

SMILES: O=C(CCC[C@@H]1[C@H]2CCCN3CCC[C@@H](CN1Cc1ccccc1)[C@@H]23)NC1CCCCC1
- Activity (H9c2 [3]): Non-Toxic

SMILES: O=C1CCC[C@@H]2[C@H]3CCCN4CCC[C@@H](CN12)[C@@H]34 [MATRINE]
- Activity (H9c2 [3]): Non-Toxic

SMILES: CCOCCNC(=O)CCC[C@@H]1[C@H]2CCCN3CCC[C@@H](CN1Cc1ccccc1)[C@@H]23
- Activity (H9c2 [3]): Non-Toxic

SMILES: O=C(CCC[C@@H]1[C@H]2CCCN3CCC[C@@H](CN1Cc1ccccc1)[C@@H]23)NCCc1c[nH]c2ccccc12
- Activity (H9c2 [3]): Non-Toxic

SMILES: O=C(CCC[C@@H]1[C@H]2CCCN3CCC[C@@H](CN1Cc1ccccc1)[C@@H]23)NC1CCC1
- Activity (H9c2 [3]): Non-Toxic

SMILES: O=C(CCC[C@@H]1[C@H]2CCCN3CCC[C@@H](CN1Cc1ccccc1)[C@@H]23)NCCc1ccc(O)cc1
- Activity (H9c2 [3]): Non-Toxic

SMILES: O=C(CCC[C@@H]1[C@H]2CCCN3CCC[C@@H](CN1Cc1ccccc1)[C@@H]23)NC1CC1
- Activity (H9c2 [3]): Non-Toxic
